Laboratory results published in patent US8853230B2, “Inhibitors of JAK” (Portola Pharmaceuticals, Inc., priority 2009, dated 2014).
pIC50: −log10 of the molar value.

Tests used:
[1] = target: T1, JAK1 (Homo sapiens, UniProt P23458); assay: Z'-LYTE kinase assay, JAK1 tyrosine phosphorylation activity; format: biochemical; conditions: read-out: JAK 1 IC50
T1 construct: 5 μl of catalytic domain recombinant Kinase enzyme+Tyr peptide substrate (Invitrogen, Calif.); purchased Invitrogen
Method in brief: (§1)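 Catalytic-domain recombinant enzymes phosphorylate a coumarin/fluorescein-labelled Tyr6 peptide for 1 h at room temperature in the presence of ATP and compound (1% DMSO). Development Reagent then cleaves non-phosphorylated peptide over 1 h, and emission ratio 445/520 nm (ex 400 nm) gives percent phosphorylation; IC50 by 4-parameter logistic model.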

[2] = target: T2, JAK2 (Homo sapiens, UniProt O60674); assay: Z'-LYTE kinase assay, JAK2 tyrosine phosphorylation activity; format: biochemical
T2 construct: 5 μl of catalytic domain recombinant Kinase enzyme+Tyr peptide substrate (Invitrogen, Calif.); purchased Invitrogen
T2 sequence (O60674 849-1124 limits assumed): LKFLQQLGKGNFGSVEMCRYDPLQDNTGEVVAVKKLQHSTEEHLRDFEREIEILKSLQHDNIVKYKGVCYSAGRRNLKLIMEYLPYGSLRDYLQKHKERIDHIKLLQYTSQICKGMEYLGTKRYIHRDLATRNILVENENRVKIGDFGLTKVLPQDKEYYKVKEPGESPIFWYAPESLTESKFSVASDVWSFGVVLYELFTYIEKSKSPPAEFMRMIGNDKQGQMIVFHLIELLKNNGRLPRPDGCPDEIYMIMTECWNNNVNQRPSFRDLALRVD
Method in brief: as §1

[3] = target: T3, JAK3 (Homo sapiens, UniProt P52333); assay: Z'-LYTE kinase assay, JAK3 tyrosine phosphorylation activity; format: biochemical
T3 construct: 5 μl of catalytic domain recombinant Kinase enzyme+Tyr peptide substrate (Invitrogen, Calif.); purchased Invitrogen
T3 sequence (P52333 822-1111 limits assumed): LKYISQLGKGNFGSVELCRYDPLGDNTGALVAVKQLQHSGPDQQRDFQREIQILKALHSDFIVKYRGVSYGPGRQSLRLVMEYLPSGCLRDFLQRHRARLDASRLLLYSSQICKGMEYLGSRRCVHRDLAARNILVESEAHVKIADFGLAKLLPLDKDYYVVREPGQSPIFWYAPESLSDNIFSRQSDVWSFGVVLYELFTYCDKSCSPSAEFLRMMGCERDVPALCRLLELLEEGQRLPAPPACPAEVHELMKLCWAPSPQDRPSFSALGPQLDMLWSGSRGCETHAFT
Method in brief: as §1

[4] = target: T4, TYK2 (Homo sapiens, UniProt P29597); assay: Z'-LYTE kinase assay, TYK2 tyrosine phosphorylation activity; format: biochemical
T4 construct: 5 μl of catalytic domain recombinant Kinase enzyme+Tyr peptide substrate (Invitrogen, Calif.); purchased Invitrogen
T4 sequence (P29597 897-1176 limits assumed): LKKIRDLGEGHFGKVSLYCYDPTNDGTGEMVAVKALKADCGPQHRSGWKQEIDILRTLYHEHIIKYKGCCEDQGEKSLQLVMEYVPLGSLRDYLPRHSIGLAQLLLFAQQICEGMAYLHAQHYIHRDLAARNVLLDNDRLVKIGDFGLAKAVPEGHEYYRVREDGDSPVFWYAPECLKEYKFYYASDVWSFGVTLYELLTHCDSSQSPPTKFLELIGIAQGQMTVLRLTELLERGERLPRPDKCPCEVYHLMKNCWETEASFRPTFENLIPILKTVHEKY
Method in brief: as §1

[5] = tested on: IL4-induced phospho STAT6 formation in Ramos B lymphocytes; assay: Inhibition of IL4-induced phospho STAT6 formation in Ramos B lymphocytes (flow cytometry); format: cell-based, human; conditions: for inhibition at 0.2 µM / inhibition at 1 µM: Homo sapiens; for inhibition at 0.2 µM: read-out: % Inhibition of IL-4 Induced STAT6 Phosphorylation 200 nM; for inhibition at 1 µM: read-out: % Inhibition of IL-4 Induced STAT6 Phosphorylation 1 μM
From the text: Similar types of assays can be used to assess JAK inhibitory activity and to determine the degree of selectivity of the particular compound as compared to syk. One means of assaying for such inhibition is detection of the effect of the compounds of the present invention on the upregulation of downstream gene products. In the Ramos/IL4 assay, B-cells are stimulated with the cytokine Interleukin-4 (IL-4) leading to the activation of the JAK/Stat pathway through phosphorylation of the JAK family kinases, JAK1 and JAK3, which in turn phosphorylate and activate the transcription factor Stat-6. […] To study the effect of inhibitors (e.g., the 2,4-substituted pyrimindinediamine compounds described herein) on the JAK1 and JAK3, human Ramos B-cells are stimulated with human IL-4. 10′ post-stimulation, cells are subjected to intracellular flow cytometry to measure the extent of STAT-6 phosphorylation. 20 to 24 hours post-stimulation, cells are stained for upregulation of CD23 and analyzed using flow cytometry.
Inhibition of IL4-induced phospho STAT6 formation was measured by pre-incubating 0.5 million Ramos B lymphocytes (ATCC) with 5 μl compound or DMSO vehicle for 1 hour at 37° C./5% CO2. Cells were activated by addition of 1 ng/ml [f]IL4 (R & D Research Systems) for 10 min at 37° C./5% CO2 and then fixed by addition of 1.6% [f]PFA (Electron Microscopy Services). Following a PBS wash step and permaeabilization with 100% methanol, cells were incubated with ALEXA-conjugated anti-phosphoSTAT6 (Y641) antibody (BD 612600). The extent of cell associated-fluorescence was determined by flow cytomentry and data expressed as mean fluorescent intensity. The extent of inhibition of the IL4-induced signal was then calculated.

T1 sequence (P23458 875-1153 limits assumed): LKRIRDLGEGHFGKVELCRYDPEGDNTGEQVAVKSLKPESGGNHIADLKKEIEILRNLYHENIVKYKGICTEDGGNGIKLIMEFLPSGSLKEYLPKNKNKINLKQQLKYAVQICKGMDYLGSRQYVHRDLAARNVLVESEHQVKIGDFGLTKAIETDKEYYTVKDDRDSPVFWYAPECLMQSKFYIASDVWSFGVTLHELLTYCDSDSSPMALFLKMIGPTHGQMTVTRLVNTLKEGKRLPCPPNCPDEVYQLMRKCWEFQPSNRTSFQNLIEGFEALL

| Molecule | pIC50 [1] | pIC50 [2] | pIC50 [3] | pIC50 [4] | inhibition at 0.2 µM ([5]; 200 nM compound) [%] | inhibition at 1 µM ([5]; 1 μM compound) [%] | % Inhibition of IL-4 Induced STAT6 Phosphorylation 200 nM ([5]; 200 nM compound) [%] | % Inhibition of IL-4 Induced STAT6 Phosphorylation 1 μM ([5]; 1 μM compound) [%] |
| --- | --- | --- | --- | --- | --- | --- | --- | --- |
| NC(=O)c1cnc(Nc2ccc(Cl)c(NC(=O)N3CCC3)c2)nc1NCc1ccccc1 [Example 233, 2-(3-(azetidine-1-carboxamido)-4-chlorophenylamino)-4-(benzylamino)pyrimidine-5-carboxamide] | 6.00 to 7.00 | 6.00 to 7.00 | 8.00 to 9.00 | 7.00 to 8.00 | 7 | 37.7 |  |  |
| NC(=O)Nc1cc(Nc2ncc(C(N)=O)c(NCc3ccccc3)n2)ccc1Cl [Example 194, 4-(benzylamino)-2-(4-chloro-3-ureidophenylamino)pyrimidine-5-carboxamide] | 6.00 to 7.00 | 6.00 to 7.00 | 8.00 to 9.00 | 7.00 to 8.00 | 10 | 22.7 |  |  |
| NC(=O)c1cnc(Nc2cccc(NC(=O)N3CC[C@H](O)C3)c2)nc1NCc1ccccc1 [Example 143, (S)-4-(benzylamino)-2-(3-(3-hydroxypyrrolidine-1-carboxamido)phenylamino)pyrimidine-5-carboxamide] | 7.00 to 8.00 | 7.00 to 8.00 | 8.00 to 9.00 | 8.00 to 9.00 | 44.7 | 85.7 |  |  |
| NC(=O)c1cnc(Nc2cccc(NC(=O)N3CCOCC3)c2)nc1NCc1ccccc1 [Example 217, N-(3-(4-(benzylamino)-5-carbamoylpyrimidin-2-ylamino)phenyl)morpholine-4-carboxamide] | 7.00 to 8.00 | 7.00 to 8.00 | 8.00 to 9.00 | 8.00 to 9.00 | 61.3 | 92 |  |  |
| NC(=O)c1cnc(Nc2ccc(Cl)c(NC(=O)NC3CC3)c2)nc1NCc1ccccc1 [Example 154, 4-(benzylamino)-2-(4-chloro-3-(3-cyclopropylureido)phenylamino)pyrimidine-5-carboxamide] | < 6.00 | < 6.00 | 7.00 to 8.00 | 6.00 to 7.00 | 11.7 | 33.7 |  |  |
| 2-(3-(azetidine-1-carboxamido)phenylamino)-4-(benzylamino)pyrimidine-5-carboxamide [Example 219] | 7.00 to 8.00 | 7.00 to 8.00 | 8.00 to 9.00 | 7.00 to 8.00 |  |  | 19.0 | 65.3 |
| C[C@@H]1CCCN1C(=O)Nc1cccc(Nc2ncc(C(N)=O)c(NCc3ccccc3)n2)c1 [Example 146, (R)-4-(benzylamino)-2-(3-(2-methylpyrrolidine-1-carboxamido)phenylamino)pyrimidine-5-carboxamide] | 7.00 to 8.00 | 7.00 to 8.00 | 8.00 to 9.00 | 8.00 to 9.00 | 40.7 | 82 |  |  |
| CNC(=O)Nc1cc(Nc2ncc(C(N)=O)c(NCc3cccc(Cl)c3)n2)ccc1Cl [Example 165, 2-(4-chloro-3-(3-methylureido)phenylamino)-4-(3-chlorobenzylamino)pyrimidine-5-carboxamide] | < 6.00 | 6.00 to 7.00 | 7.00 to 8.00 | < 6.00 | 57.3 | 89.7 |  |  |
| NC(=O)c1cnc(Nc2cccc(NC(=O)C3CCOC3)c2)nc1NCc1ccccc1 (stereo not drawn) [Example 203, 4-(benzylamino)-2-(3-(tetrahydrofuran-3-carboxamido)phenylamino)pyrimidine-5-carboxamide] | 7.00 to 8.00 | 7.00 to 8.00 | 8.00 to 9.00 | 8.00 to 9.00 | 80 | 106 |  |  |
| C[C@@H](Nc1nc(Nc2ccc(Cl)c(NC(=O)N(C)C)c2)ncc1C(N)=O)c1ccccc1 [Example 195, (R)-2-(4-chloro-3-(3,3-dimethylureido)phenylamino)-4-(1-phenylethylamino)pyrimidine-5-carboxamide] | 6.00 to 7.00 | 7.00 to 8.00 | 8.00 to 9.00 | 7.00 to 8.00 | 3.3 | 27.3 |  |  |
| CCCCNc1nc(Nc2cccc(NC(=O)N3CCCC3)c2)ncc1C(N)=O [Example 135, 4-(butylamino)-2-(3-(pyrrolidine-1-carboxamido)phenylamino)pyrimidine-5-carboxamide] | 7.00 to 8.00 | 7.00 to 8.00 | 8.00 to 9.00 | 8.00 to 9.00 | 42.3 | 89.7 |  |  |
| NC(=O)c1cnc(Nc2ccc(Cl)c(NC(=O)N3CCCC3)c2)nc1NCc1cccc(F)c1 [Example 177, 2-(4-chloro-3-(pyrrolidine-1-carboxamido)phenylamino)-4-(3-fluorobenzylamino)pyrimidine-5-carboxamide] | < 6.00 | 6.00 to 7.00 | 8.00 to 9.00 | 6.00 to 7.00 | 2.3 | 7.3 |  |  |
| C[C@@H](Nc1nc(Nc2cccc(NC(=O)N3CCC[C@@H]3C)c2)ncc1C(N)=O)c1ccccc1 [Example 137, 2-(3-((S)-2-methylpyrrolidine-1-carboxamido)phenylamino)-4-((R)-1-phenylethylamino)pyrimidine-5-carboxamide] | 6.00 to 7.00 | 7.00 to 8.00 | 8.00 to 9.00 | 7.00 to 8.00 | 14.7 | 57.3 |  |  |
| NC(=O)c1cnc(Nc2cccc(NC(=O)[C@@H]3CCCO3)c2)nc1NCc1cccc(F)c1 [Example 208, (S)-4-(3-fluorobenzylamino)-2-(3-(tetrahydrofuran-2-carboxamido)phenylamino)pyrimidine-5-carboxamide] | 7.00 to 8.00 | 7.00 to 8.00 | 8.00 to 9.00 | 7.00 to 8.00 | 22.7 | 67.7 |  |  |
| C[C@@H](Nc1nc(Nc2ccc(Cl)c(NC(N)=O)c2)ncc1C(N)=O)c1ccccc1 [Example 193, (R)-2-(4-chloro-3-ureidophenylamino)-4-(1-phenylethylamino)pyrimidine-5-carboxamide] | 6.00 to 7.00 | 6.00 to 7.00 | 8.00 to 9.00 | 6.00 to 7.00 | 13.7 | 51.3 |  |  |
| NC(=O)c1cnc(Nc2cccc(NC(=O)N3CCC3)c2)nc1NCc1ccccc1 [Example 222, 2-(3-(azetidine-1-carboxamido)phenylamino)-4-(benzylamino)pyrimidine-5-carboxamide] | 7.00 to 8.00 | 7.00 to 8.00 | 8.00 to 9.00 | 8.00 to 9.00 | 47.7 | 86.7 |  |  |
| CC(=O)Nc1cccc(Nc2ncc(C(N)=O)c(NCC3CCNCC3)n2)c1 [Example 190, 2-(3-acetamidophenylamino)-4-(piperidin-4-ylmethylamino)pyrimidine-5-carboxamide] | 7.00 to 8.00 | 7.00 to 8.00 | 8.00 to 9.00 | 7.00 to 8.00 | 17 | 39.3 |  |  |
| CNC(=O)Nc1cccc(Nc2ncc(C(N)=O)c(NCc3ccccc3F)n2)c1 [Example 181, 4-(2-fluorobenzylamino)-2-(3-(3-methylureido)phenylamino)pyrimidine-5-carboxamide] | 7.00 to 8.00 | 7.00 to 8.00 | 8.00 to 9.00 | 8.00 to 9.00 | 23.7 | 38.7 |  |  |
| CC(=O)Nc1cc(Nc2ncc(C(N)=O)c(N[C@H](C)c3ccccc3)n2)ccc1Cl [Example 108, (R)-2-(3-acetamido-4-chlorophenylamino)-4-(1-phenylethylamino)pyrimidine-5-carboxamide] | 6.00 to 7.00 | 7.00 to 8.00 | 8.00 to 9.00 | 7.00 to 8.00 | 21.3 | 70 |  |  |
